One assay has as its target human full-length MKNK1 (Homo sapiens (Human), UniProt Q9BUB5, T344D). The experiment in a line: MKNK1 kinase high ATP assay (TR-FRET). The assay is classed as biochemical.
Conditions: not given
The gist of the method:
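GST-tagged full-length MKNK1 (aa 1–424, T344D; insect-cell expressed) preincubated 15 min with compound, then reacted 30 min at 22 °C with 2 mM ATP and 0.06 μM biotinylated peptide (final) in HEPES pH 7.5 buffer. Phosphopeptide detected by TR-FRET 665/620 ratio, normalized to no-inhibitor and no-enzyme controls.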
Chain of human full-length MKNK1 (Q9BUB5 other isoform, or with tags, fused parts or gaps T344D): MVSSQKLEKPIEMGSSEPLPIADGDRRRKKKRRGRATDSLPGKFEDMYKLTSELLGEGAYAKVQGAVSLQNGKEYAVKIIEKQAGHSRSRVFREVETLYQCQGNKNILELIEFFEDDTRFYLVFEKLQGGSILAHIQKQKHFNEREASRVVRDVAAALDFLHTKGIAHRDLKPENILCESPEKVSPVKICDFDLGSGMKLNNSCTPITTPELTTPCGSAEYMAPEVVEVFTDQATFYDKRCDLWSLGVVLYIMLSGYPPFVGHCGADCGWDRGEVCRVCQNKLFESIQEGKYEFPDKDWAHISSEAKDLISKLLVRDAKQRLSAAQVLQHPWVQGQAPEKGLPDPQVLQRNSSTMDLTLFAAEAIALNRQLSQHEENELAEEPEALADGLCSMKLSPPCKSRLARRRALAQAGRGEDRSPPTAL
The IC50 is the point on the concentration scale where inhibition reaches its midpoint. For the compound `O=C1CCN(C(=O)[C@H]2CCc3c(sc4ncnc(Nc5ccn6nccc6c5)c34)C2)CC1` [Example 33, 1-{[(7S)-4-(Pyrazolo[1,5-a]pyridin-5-ylamino)-5,6,7,8-tetrahydro[1]benzothieno[2,3-d]pyrimidin-7-yl]carbonyl}piperidin-4-one], inhibition was half-maximal at 96 nM (IC50).

Still in this assay, the particulars now being: high ATP (2 mM), 15 min preincubation with enzyme; read-out: MKNK1 IC50.
With `C[C@@H]1CN(C(=O)[C@H]2CCc3c(sc4ncnc(Nc5ccn6nccc6c5)c34)C2)C[C@H](C)O1` [Example 5, [(2R,6S)-2,6-Dimethylmorpholin-4-yl][(7S)-4-(pyrazolo[1,5-a]pyridin-5-ylamino)-5,6,7,8-tetrahydro[1]benzothieno[2,3-d]pyrimidin-7-yl]methanone], the 50% inhibitory concentration (IC50) is 21 nM.

Consider `CN(CCC(F)(F)F)C(=O)[C@H]1CCc2c(sc3ncnc(Nc4cc5ccnn5cc4Cl)c23)C1` [Example 48, (7S)-4-[(6-Chloropyrazolo[1,5-a]pyridin-5-yl)amino]-N-methyl-N-(3,3,3-trifluoropropyl)-5,6,7,8-tetrahydro[1]benzothieno[2,3-d]pyrimidine-7-carboxamide], for which the IC50 amounted to 35 nM.

As for `CCN(CCOC)C(=O)[C@H]1CCc2c(sc3ncnc(Nc4cc5ccnn5cc4Cl)c23)C1` [Example 70, (7S)-4-[(6-Chloropyrazolo[1,5-a]pyridin-5-yl)amino]-N-ethyl-N-(2-methoxyethyl)-5,6,7,8-tetrahydro[1]benzothieno[2,3-d]pyrimidine-7-carboxamide], the IC50 stood at 7 nM.

On to `COc1cn2nccc2cc1Nc1ncnc2sc3c(c12)CC[C@H](C(=O)NCCC(F)(F)F)C3` [Example 80, (7S)-4-[(6-Methoxypyrazolo[1,5-a]pyridin-5-yl)amino]-N-(3,3,3-trifluoropropyl)-5,6,7,8-tetrahydro[1]benzothieno[2,3-d]pyrimidine-7-carboxamide], for which the IC50 was found to be 3 nM.

As for `COc1cn2nccc2cc1Nc1ncnc2sc3c(c12)CC[C@H](C(=O)N1C[C@@H]2C[C@H]1CN2C)C3` [Example 121, (7S)-4-[(6-Methoxypyrazolo[1,5-a]pyridin-5-yl)amino]-5,6,7,8-tetrahydro[1]benzothieno[2,3-d]pyrimidin-7-yl[(1S,4S)-5-methyl-2,5-diazabicyclo[2.2.1]hept-2-yl]methanone], the IC50 was found to be 1 nM.

Take `C[C@H]1CN(C(=O)[C@H]2CCc3c(sc4ncnc(Nc5ccn6nccc6c5)c34)C2)C[C@H](C)O1` [Example 9, [(2S,6S)-2,6-Dimethylmorpholin-4-yl][(7S)-4-(pyrazolo[1,5-a]pyridin-5-ylamino)-5,6,7,8-tetrahydro[1]benzothieno[2,3-d]pyrimidin-7-yl]methanone]: the 50% inhibitory concentration (IC50) amounted to 49 nM.

Turning to `O=C([C@H]1CCc2c(sc3ncnc(Nc4ccn5nccc5c4)c23)C1)N1CCC(F)(F)C1` [Example 34, (3,3-Difluoropyrrolidin-1-yl)[(7S)-4-(pyrazolo[1,5-a]pyridin-5-ylamino)-5,6,7,8-tetrahydro[1]benzothieno[2,3-d]pyrimidin-7-yl]methanone], the IC50 came out at 71 nM.

Consider `O=C(O)[C@H]1CCc2c(sc3ncnc(Nc4ccn5nccc5c4)c23)C1` [Example 2, (7S)-4-(Pyrazolo[1,5-a]pyridin-5-ylamino)-5,6,7,8-tetrahydro[1]benzothieno[2,3-d]pyrimidine-7-carboxylic acid], for which the concentration for half-maximal inhibition (IC50) stood at 707 nM.

For `CN(C)[C@H]1CCN(C(=O)[C@H]2CCc3c(sc4ncnc(Nc5cc6ccnn6cc5Cl)c34)C2)C1` [Example 59, (7S)-4-[(6-Chloropyrazolo[1,5-a]pyridin-5-yl)amino]-5,6,7,8-tetrahydro[1]benzothieno[2,3-d]pyrimidin-7-yl[(3S)-3-(dimethylamino)pyrrolidin-1-yl]methanone], the IC50 turned out to be 1 nM.

With `C[C@@H]1CN(C(=O)[C@H]2CCc3c(sc4ncnc(Nc5ccn6nccc6c5)c34)C2)C[C@@H](C)O1` [Example 10, [(2R,6R)-2,6-Dimethylmorpholin-4-yl][(7S)-4-(pyrazolo[1,5-a]pyridin-5-ylamino)-5,6,7,8-tetrahydro[1]benzothieno[2,3-d]pyrimidin-7-yl]methanone], the IC50 was found to be 33 nM.

For the compound `CNC(=O)[C@H]1CCc2c(sc3ncnc(Nc4cc5ccnn5cc4OC)c23)C1` [Example 78, (7S)-4-[(6-Methoxypyrazolo[1,5-a]pyridin-5-yl)amino]-N-methyl-5,6,7,8-tetrahydro[1]benzothieno[2,3-d]pyrimidine-7-carboxamide], the IC50 came to 5 nM.

As to `CN(C)C(=O)CN(C)C(=O)[C@H]1CCc2c(sc3ncnc(Nc4ccn5nccc5c4)c23)C1` [Example 26, (7S)—N-[2-(Dimethylamino)-2-oxoethyl]-N-methyl-4-(pyrazolo[1,5-a]pyridin-5-ylamino)-5,6,7,8-tetrahydro[1]benzothieno[2,3-d]pyrimidine-7-carboxamide], the IC50 was 14 nM.

Turning to `O=C([C@H]1CCc2c(sc3ncnc(Nc4cc5ccnn5cc4Cl)c23)C1)N1C[C@H]2C[C@@H]1CO2` [Example 75, (7S)-4-[(6-Chloropyrazolo[1,5-a]pyridin-5-yl)amino]-5,6,7,8-tetrahydro[1]benzothieno[2,3-d]pyrimidin-7-yl[(1R,4R)-2-oxa-5-azabicyclo[2.2.1]hept-5-yl]methanone], the IC50 was 56 nM.

As for `COc1cn2nccc2cc1Nc1ncnc2sc3c(c12)CC[C@H](C(=O)Nc1cccc(Cl)c1)C3` [Example 89, (7S)—N-(3-Chlorophenyl)-4-[(6-methoxypyrazolo[1,5-a]pyridin-5-yl)amino]-5,6,7,8-tetrahydro[1]benzothieno[2,3-d]pyrimidine-7-carboxamide], the IC50 amounted to 24 nM.

`CN(C)[C@@H]1CCN(C(=O)[C@H]2CCc3c(sc4ncnc(Nc5ccn6nccc6c5)c34)C2)C1` [Example 6, [(3R)-3-(Dimethylamino)pyrrolidin-1-yl][(7S)-4-(pyrazolo[1,5-a]pyridin-5-ylamino)-5,6,7,8-tetrahydro[1]benzothieno[2,3-d]pyrimidin-7-yl]methanone]: the 50% inhibitory concentration (IC50) turned out to be 12 nM.

Turning to `COc1cn2nccc2cc1Nc1ncnc2sc3c(c12)CC[C@H](C(=O)N1C[C@@H](C)O[C@@H](C)C1)C3` [Example 112, [(2R,6S)-2,6-Dimethylmorpholin-4-yl](7S)-4-[(6-methoxypyrazolo[1,5-a]pyridin-5-yl)amino]-5,6,7,8-tetrahydro[1]benzothieno[2,3-d]pyrimidin-7-ylmethanone], the IC50 came to 2 nM.

Regarding “(7S)-4-[(6-Chloropyrazolo[1,5-a]pyridin-5-yl)amino]-5,6,7,8-tetrahydro[1]benzothieno[2,3-d]pyrimidin-7-yl(4-[2-dimethylamino)ethyl](methyl)aminopiperidin-1-yl)methanone [Example 62]”, the IC50 stood at 6 nM.

`O=C([C@H]1CCc2c(sc3ncnc(Nc4ccn5nccc5c4)c23)C1)N1CC(O)C1` [Example 24, (3-Hydroxyazetidin-1-yl)[(7S)-4-(pyrazolo[1,5-a]pyridin-5-ylamino)-5,6,7,8-tetrahydro[1]benzothieno[2,3-d]pyrimidin-7-yl]methanone]: the IC50 came out at 20 nM.

As for `CCCCN(C)C(=O)[C@H]1CCc2c(sc3ncnc(Nc4cc5ccnn5cc4Cl)c23)C1` [Example 49, (7S)—N-Butyl-4-[(6-chloropyrazolo[1,5-a]pyridin-5-yl)amino]-N-methyl-5,6,7,8-tetrahydro[1]benzothieno[2,3-d]pyrimidine-7-carboxamide], the IC50 came out at 15 nM.

As to `C[C@@H]1COCCN1C(=O)[C@H]1CCc2c(sc3ncnc(Nc4ccn5nccc5c4)c23)C1` [Example 3, [(3R)-3-Methylmorpholin-4-yl][(7S)-4-(pyrazolo[1,5-a]pyridin-5-ylamino)-5,6,7,8-tetrahydro[1]benzothieno[2,3-d]pyrimidin-7-yl]methanone], the IC50 stood at 80 nM.

`CCN(CCO)C(=O)[C@H]1CCc2c(sc3ncnc(Nc4ccn5nccc5c4)c23)C1` [Example 21, (7S)—N-Ethyl-N-(2-hydroxyethyl)-4-(pyrazolo[1,5-a]pyridin-5-ylamino)-5,6,7,8-tetrahydro[1]benzothieno[2,3-d]pyrimidine-7-carboxamide]: the IC50 came out at 19 nM.

Take `CN(C)CCN1CCN(C(=O)[C@H]2CCc3c(sc4ncnc(Nc5cc6ccnn6cc5Cl)c34)C2)CC1` [Example 66, (7S)-4-[(6-Chloropyrazolo[1,5-a]pyridin-5-yl)amino]-5,6,7,8-tetrahydro[1]benzothieno[2,3-d]pyrimidin-7-yl4-[2-(dimethylamino)ethyl]piperazin-1-ylmethanone]: the IC50 is 6 nM.

Consider `CN(C)CCN1CCN(C(=O)[C@H]2CCc3c(sc4ncnc(Nc5ccn6nccc6c5)c34)C2)CC1` [Example 31, {4-[2-(Dimethylamino)ethyl]piperazin-1-yl}[(7S)-4-(pyrazolo[1,5-a]pyridin-5-ylamino)-5,6,7,8-tetrahydro[1]benzothieno[2,3-d]pyrimidin-7-yl]methanone], for which the IC50 was determined as 26 nM.

Regarding `CC(C)NC(=O)[C@H]1CCc2c(sc3ncnc(Nc4cc5ccnn5cc4Cl)c23)C1` [Example 44, (7S)-4-[(6-Chloropyrazolo[1,5-a]pyridin-5-yl)amino]-N-(propan-2-yl)-5,6,7,8-tetrahydro[1]benzothieno[2,3-d]pyrimidine-7-carboxamide], the IC50 turned out to be 54 nM.

On to `COc1cn2nccc2cc1Nc1ncnc2sc3c(c12)CC[C@H](C(=O)N1CC[C@H](N(C)C)C1)C3` [Example 107, [(3S)-3-(Dimethylamino)pyrrolidin-1-yl](7S)-4-[(6-methoxypyrazolo[1,5-a]pyridin-5-yl)amino]-5,6,7,8-tetrahydro[1]benzothieno[2,3-d]pyrimidin-7-ylmethanone], for which the half-maximal inhibitory concentration (IC50) is less than 1 nM.

In the case of `CN(C)C1CN(C(=O)[C@H]2CCc3c(sc4ncnc(Nc5ccn6nccc6c5)c34)C2)C1` [Example 28, [3-(Dimethylamino)azetidin-1-yl][(7S)-4-(pyrazolo[1,5-a]pyridin-5-ylamino)-5,6,7,8-tetrahydro[1]benzothieno[2,3-d]pyrimidin-7-yl]methanone], the 50% inhibitory concentration (IC50) is 19 nM.

For the origin of these results see patent publication US10487092B2, “Pyrazolopyridinamines as MKNK1 and MKNK2 inhibitors” (BAYER PHARMA AKTIENGESELLSCHAFT, priority 2014, dated 2019).
